Measurements published in PMC3836662, “New Antimalarial Hits from Dacryodes edulis (Burseraceae) - Part I: Isolation, In Vitro Activity, In Silico “drug-likeness” and Pharmacokinetic Profiles” (PLoS ONE, 2013).
In brackets after ≈: the same amount, converted by molar mass. Entries after “also recorded” stand apart in the source; their conditions may differ. Read-outs that look alike come from different tables or passages of the source.

Experiments:
[1] = system: 3D7 (chloroquine-susceptible) strain of Plasmodium falciparum; assay: Antiplasmodial screen, parasite lactate dehydrogenase (pLDH) assay, 3D7 strain; format: cell-based; conditions: for Activity against 3D7 IC95 / Activity against 3D7 IC50: P. falciparum 3D7, pLDH assay; for IC50: Plasmodium falciparum
Description: (§1) The 3D7 (MRA-102), and Dd2 (MRA-615) strains were kindly donated by BEI-Resources (MR4, Manassas, VA, USA), and maintained in continuous culture, with back up stored in liquid nitrogen.
(§2) The laboratory strains of P. falciparum were grown and maintained in culture using the method of Trager and Jensen with some modifications. All the chemicals except Albumax II (Gibco; Invitrogen, USA), were ordered from Sigma-Aldrich Inc (Germany). The cultures were monitored and parasitemia assessed using both fluorescence (acridine orange) and normal light (Giemsa stain) microscopes.
(§3) The antiplasmodial screen was carried out in 96-well microtitration plates as described by Desjardins et al. with some modifications. The different drug stock solutions were prepared by predisolving the powder in DMSO (200 µL for a final volume of 10 mL stock solution) and subsequently with the culture medium. The parasitaemia was measured using the parasite lactate dehydrogenase (pLDH) assay as previously described.
(§4) Each product was tested in triplicate, in two to three separate experiments, giving a total of six to nine repeats per product and per concentration tested. The IC50 and CC50 values obtained from the replicates were pooled and expressed as geometric mean IC50 and standard deviation. The different means were compared among themselves by independent samples t-test.

[2] = system: Dd2 (multidrug-resistant) strain of Plasmodium falciparum; assay: Antiplasmodial screen, parasite lactate dehydrogenase (pLDH) assay, Dd2 strain; format: cell-based; conditions: for Activity against Dd2 IC95 / Activity against Dd2 IC50: P. falciparum Dd2, pLDH assay; for IC50: Plasmodium falciparum
Description: as §1, §2, §3, §4

[3] = Cytotoxicity on LLC-MK2 cells; format: cell-based, monkey; conditions: monkey, LLC-MK2 cells, read-out: Cytotoxicity against LLC-MK2 CC50
Description: (§5) The cytotoxicity of the extracts and pure compounds were estimated on LLC-MK2 monkey kidney epithelial cells as previously described with some modifications. The cell line was ordered from the American Type Culture Collection (ATCC, Manassas, Virginia, USA) and maintained in continuous culture.
as §4
(§6) The selectivity index defined as SI = CC50/IC50 was equally considered for compounds with mild cytotoxicity with SI<10 for toxic products. Based on these cut-off values, all products isolated from D. edulis in the present study were non-toxic against the LLC-MK2 cell-line.

[4] = system: LLC-MK2 monkey kidney epithelial cells; assay: Cytotoxicity on LLC-MK2 cells; format: cell-based; conditions: SI = CC50/IC50, LLC-MK2 vs Dd2
Description: as §5, §4, §6

Dd2 [5] = assay: Stage-specific activity: variation of IC50 with exposure time, sorbitol-synchronized ring stage culture; format: cell-based; conditions: Plasmodium falciparum
Excerpt: As a preliminary study towards the understanding of the mechanisms of action of the active drugs, the stage-specific activity of the products was studied by investigation of the variation in IC50 values with exposure time.
Figure 2 Variation of IC50 against Dd2 with exposure time. […] The IC50 values presented were obtained from two distinct experiments run in duplicate each.

Dd2 [6] = assay: Drug-interaction study, fixed-ratio combinations, FIC / Combination Index / isobologram; format: cell-based, Plasmodium falciparum; conditions: for Increase of activity on combining DES4 and quinine: DES4 plus quinine
Description: From the results obtained with individual drugs, a stock solution of 32 x IC50 of each drug was prepared and used in preparing a series of six combinations ([1]–[6]) containing 5:0, 4:1, 3:2, 2:3, 1:4 and 0:5 proportions volume:volume of Drug A versus Drug B respectively. Each of these formulations were then tested and their different inhibitory concentrations determined separately.
IC50 values obtained for the different drug mixtures were used to calculate the Fractional Inhibitory Concentration (FIC) for each drug as described previously. FIC-A for example measures how much the presence of Drug B affects the activity of Drug A in the mixture, and vis versa.
FIC−A=IC50−A(comb.)/IC50−A(alone)
FIC−B=IC50−B(comb.)/IC50−B(alone)
A graph was constructed with the axes representing the mean FIC of linear scales, with mean FIC-A on the x axis and FIC-B on the y axis. When the combination is additive, the isobole which is the line joining the points that represent all the (x, y) points is straight. Synergistic combinations give concave isoboles, and antagonistic combinations give convex isoboles.
CI values were therefore calculated separately for both the drugs present in combinations 2 through 5; combinations 1 and 6 containing Drug A and Drug B alone. In addition to analyzing the result obtained with each drug combination formula, an overall mean CI value for the four combinations was determined to conclude on the interaction patterns of the two drugs being tested. Synergy or antagonism was defined as a mean CI< or >1, respectively, and lack of interaction (also termed additivity) defined as CI= 1 [21].
IC50 values were used to calculate the Fractional Inhibitory Concentration (FIC) for each drug as described previously. FIC-A measures how much the presence of a Drug B affects the activity of Drug-A in the mixture. […] Statistical significance was defined as p<0.05. A graph was constructed with the axes representing the mean FIC of linear scales, with mean FIC-A on the x-axis and FIC-B on the y-axis. When the combination is additive, the isobole which is the line joining the points that represent all the (x, y) points is straight. Synergistic combinations give concave isoboles, and antagonistic combinations give convex isoboles.
The overall mean CI value for the four combinations formulae was finally determined and synergy or antagonism between the two drugs in combination, defined as a mean CI< or >1, respectively, lack of interaction or additivity defined as CI = 1 [21].

[7] = 3D7, P. falciparum 3D7, pLDH assay, read-out: Activity against 3D7 IC50
[8] = DD2, P. falciparum Dd2, pLDH assay, read-out: Activity against Dd2 IC50
[9] = 3D7, read-out: Activity against 3D7 IC50, P. falciparum 3D7, pLDH assay
[10] = Dd2, synchronized ring stage, 24 hours exposure, read-out: IC50 against Dd2, exposure time 24 hours
[11] = Dd2, synchronized ring stage, 48 hours exposure, read-out: IC50 against Dd2, exposure time 48 hours
[12] = DES4 combined with quinine, Dd2

Row | SMILES | Activity against 3D7 IC95 [1] [µg/mL] | IC50 [1, 7] [µg/mL] | Activity against Dd2 IC95 [2] [µg/mL] | IC50 [2, 8] [µg/mL] | Activity against 3D7 IC50 [1] [µg/mL] | Activity against Dd2 IC50 [2] | CC50 [3] [µg/mL] | Selectivity index/Dd2 [4] | further results
1 | CO[C@H]1O[C@@H]2O[C@@]3(C)CC[C@H]4[C@H](C)CC[C@@H]([C@H]1C)[C@@]24OO3 [ART, artemether, reference compound] | 0.08 ± 0.02 | 0.02 ± 0.01 (≈ 0.067 µM) | 0.12 ± 0.09 | 0.03 ± 0.01 (≈ 0.101 µM) |  |  |  |  | 
2 | C[C@@H]1O[C@@H](Oc2c(-c3ccc(O)c(O)c3)oc3cc(O)cc(O)c3c2=O)[C@H](O)[C@H](O)[C@H]1O [DES1, Quercitrin] | 18.53 ± 3.13 |  | 23.82 ± 6.35 |  | 5.96 ± 0.51 | below 10 µg/mL | > 100 | > 44 | IC50 [1, 9]: < 10 µg/mL; IC50 (Dd2 [5]; DD2, 24 h, read-out: IC50 against Dd2, exposure time 24 hours): 1.41 µg/mL (≈ 3.14 µM); IC50 (Dd2 [5]; DD2, 48 h, read-out: IC50 against Dd2, exposure time 48 hours): 2.19 µg/mL (≈ 4.88 µM)
3 | CC[C@H](CCC(C)C1CCC2C3CC=C4C[C@@H](O[C@@H]5O[C@H](CO)[C@@H](O)[C@H](O)[C@H]5O)CC[C@]4(C)C3CC[C@]12C)C(C)C (stereo partly drawn) [DES5, sitosterol 3-O-β-D-glucopyranoside sterol] | 4.38 ± 0.87 |  | 21.35 ± 0.44 | < 10 | 1.90 ± 0.22 | 5.34 ± 0.98 µg/mL |  | > 18 | Activity against 3D7 IC50 ([1]; listed as Sitosterol 3-O-β-D-glucopyranoside): below 10 µg/mL; CC50 ([3]; LLC-MK2 monkey kidney epithelial cells): > 100 µg/mL
4 | C=C[C@H]1C[N@@]2CC[C@H]1C[C@H]2[C@H](O)c1ccnc2ccc(OC)cc12 [QN, Quinine sulphate, reference compound] | 0.48 ± 0.10 | 0.13 ± 0.01 | 0.38 ± 0.08 | 0.12 ± 0.01 |  |  |  |  | IC50 (Dd2 [5]; [10]): 0.21 µg/mL; IC50 (Dd2 [5]; [11]): 0.18 µg/mL; Increase of activity on combining DES4 and quinine (Dd2 [6]): 6 fold
5 | C[C@@H]1O[C@@H](Oc2c(-c3ccc(O)cc3)oc3cc(O)cc(O)c3c2=O)[C@H](O)[C@H](O)[C@H]1O [DES2, Afzelin] | 13.64 ± 0.48 |  | 35.03 ± 3.52 |  |  | inactive | > 100 | > 5 | IC50 [1, 9]: 4.59 ± 0.21 µg/mL (≈ 10.6 µM); IC50 ([2]; DD2, read-out: Activity against Dd2 IC50, P. falciparum Dd2, pLDH assay): 19.3 ± 1.56 µg/mL (≈ 44.7 µM)
6 | COC(=O)c1cc(O)c(O)c(O)c1 [DES4, methyl 3,4,5-trihydroxybenzoate] | 2.58 ± 2.04 | 0.37 ± 0.07 (≈ 2.01 µM) | 5.89 ± 0.95 |  |  |  | > 100 | > 182 | IC50 (Dd2 [5]; [10]): 6.32 µg/mL (≈ 34.3 µM); IC50 (Dd2 [5]; [11]): 0.56 µg/mL (≈ 3.04 µM); Combination Index, overall value (Dd2 [6]; DES4 combined with artemether): 1.10; Interaction pattern with artemether (Dd2 [6]; DES4 combined with artemether): additivity; also recorded: only additive effects; Combination Index, Combination 2 (Dd2 [6]; DES4 combined with quinine, Combination 2 (4:1), Dd2): 1.05; Combination Index, mean value (Dd2 [6]; [12]): 0.65; Interaction pattern with quinine (Dd2 [6]; [12]): synergy; also recorded: synergistic interactions; Increase of activity on combining DES4 and quinine (Dd2 [6]): 3 fold
7 | O=c1c(O)c(-c2ccc(O)c(O)c2)oc2cc(O)cc(O)c12 [DES3, Quercetin] | 15.19 ± 3.88 | < 10 | 15.96 ± 4.79 | < 10 | 6.07 ± 0.34 | 5.91 ± 0.97 µg/mL | > 100 | > 17 | 
